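Test compounds were applied to cells in 96-well plates for 48 hours at 5 doses. GI50: concentration for 50% inhibition of growth.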 Calls of active or inactive are those of the source. Rule as the data show it: active = GI50 up to about 1.1 µM and inactive = higher.
What was measured:
Assay in all cases: NCI-60 cell line screen, 48 h
UACC-257 = test system: UACC-257
HCT-15 = test system: HCT-15
IGROV-1 = test system: IGROV-1
SK-MEL-5 = test system: SK-MEL-5
NCI-H460 = test system: NCI-H460
OVCAR-8 = test system: OVCAR-8
NCI/ADR-RES = test system: NCI/ADR-RES
RPMI-8226 = test system: RPMI-8226
NCI-H522 = test system: NCI-H522
COLO 205 = test system: COLO 205
OVCAR-4 = test system: OVCAR-4
SK-OV-3 = test system: SK-OV-3
NCI-H226 = test system: NCI-H226
UO-31 = test system: UO-31
OVCAR-5 = test system: OVCAR-5
OVCAR-3 = test system: OVCAR-3
HCC 2998 = test system: HCC 2998
SK-MEL-28 = test system: SK-MEL-28
NCI-H23 = test system: NCI-H23
DU-145 = test system: DU-145
U-251 = test system: U-251
PC-3 = test system: PC-3
CAKI-1 = test system: CAKI-1
ACHN = test system: ACHN
SNB-75 = test system: SNB-75
MCF7 = test system: MCF7
A498 = test system: A498
HT-29 = test system: HT-29
RXF 393 = test system: RXF 393
SF-539 = test system: SF-539
MDA-MB-435 = test system: MDA-MB-435
TK-10 = test system: TK-10
HOP-62 = test system: HOP-62
SR = test system: SR
786-0 = test system: 786-0
SW-620 = test system: SW-620
M14 = test system: M14
LOX IMVI = test system: LOX IMVI
HOP-92 = test system: HOP-92
SF-268 = test system: SF-268
A549 = test system: A549
Malme-3M = test system: Malme-3M
EKVX = test system: EKVX
SNB-19 = test system: SNB-19
KM12 = test system: KM12
BT-549 = test system: BT-549
SN12C = test system: SN12C
SF-295 = test system: SF-295
T47D = test system: T47D
MDA-N = test system: MDA-N
MDA-MB-231 = test system: MDA-MB-231
K562 = test system: K562
HCT-116 = test system: HCT-116
Hs-578T = test system: Hs-578T
SK-MEL-2 = test system: SK-MEL-2
UACC-62 = test system: UACC-62
MOLT-4 = test system: MOLT-4
HL-60 = test system: HL-60
CCRF-CEM = test system: CCRF-CEM

Structure (SMILES): Cc1ccc(S(=O)(=O)NC(=O)OC23COCN2COC3)cc1
- GI50 (UACC-257): > 100 µM (inactive)
- GI50 (HCT-15): > 100 µM
- GI50 (IGROV-1): > 100 µM (inactive)
- GI50 (SK-MEL-5): > 100 µM (inactive)
- GI50 (NCI-H460): > 100 µM (inactive)
- GI50 (OVCAR-8): > 100 µM (inactive)
- GI50 (NCI/ADR-RES): > 100 µM (inactive)
- GI50 (RPMI-8226): 29.5 µM (inactive)
- GI50 (NCI-H522): > 100 µM (inactive)
- GI50 (COLO 205): > 100 µM (inactive)
- GI50 (OVCAR-4): > 100 µM (inactive)
- GI50 (SK-OV-3): > 100 µM (inactive)
- GI50 (NCI-H226): > 100 µM (inactive)
- GI50 (UO-31): > 100 µM (inactive)
- GI50 (OVCAR-5): > 100 µM (inactive)
- GI50 (OVCAR-3): > 100 µM (inactive)
- GI50 (HCC 2998): > 100 µM (inactive)
- GI50 (SK-MEL-28): > 100 µM (inactive)
- GI50 (NCI-H23): > 100 µM (inactive)
- GI50 (DU-145): > 100 µM (inactive)
- GI50 (U-251): > 100 µM (inactive)
- GI50 (PC-3): > 100 µM (inactive)
- GI50 (CAKI-1): > 100 µM (inactive)
- GI50 (ACHN): > 100 µM (inactive)
- GI50 (SNB-75): > 100 µM (inactive)
- GI50 (MCF7): 91 µM (inactive)
- GI50 (A498): > 100 µM (inactive)
- GI50 (HT-29): > 100 µM (inactive)
- GI50 (RXF 393): > 100 µM (inactive)
- GI50 (SF-539): > 100 µM (inactive)
- GI50 (MDA-MB-435): > 100 µM (inactive)
- GI50 (TK-10): > 100 µM (inactive)
- GI50 (HOP-62): > 100 µM (inactive)
- GI50 (SR): 31.6 µM (inactive)
- GI50 (786-0): > 100 µM (inactive)
- GI50 (SW-620): 81.7 µM (inactive)
- GI50 (M14): > 100 µM (inactive)
- GI50 (LOX IMVI): > 100 µM (inactive)
- GI50 (HOP-92): > 100 µM (inactive)
- GI50 (SF-268): > 100 µM (inactive)
- GI50 (A549): > 100 µM (inactive)
- GI50 (Malme-3M): > 100 µM (inactive)
- GI50 (EKVX): > 100 µM (inactive)
- GI50 (SNB-19): > 100 µM (inactive)
- GI50 (KM12): > 100 µM (inactive)
- GI50 (BT-549): > 100 µM (inactive)
- GI50 (SN12C): > 100 µM (inactive)
- GI50 (SF-295): > 100 µM (inactive)
- GI50 (T47D): 69.5 µM (inactive)
- GI50 (MDA-N): > 100 µM (inactive)
- GI50 (MDA-MB-231): > 100 µM (inactive)
- GI50 (K562): > 100 µM (inactive)
- GI50 (HCT-116): > 100 µM (inactive)
- GI50 (Hs-578T): > 100 µM (inactive)
- GI50 (SK-MEL-2): > 100 µM (inactive)
- GI50 (UACC-62): > 100 µM (inactive)

Structure (SMILES): N=C(N)NS(=O)(=O)c1ccc(Nc2c3ccccc3nc3ccc(C(=O)Nc4ccc(S(N)(=O)=O)cc4)cc23)cc1
- GI50 (UACC-257): > 100 µM (inactive)
- GI50 (HCT-15): > 100 µM
- GI50 (IGROV-1): > 100 µM (inactive)
- GI50 (SK-MEL-5): > 100 µM (inactive)
- GI50 (NCI-H460): > 100 µM (inactive)
- GI50 (OVCAR-8): > 100 µM (inactive)
- GI50 (NCI/ADR-RES): > 100 µM (inactive)
- GI50 (RPMI-8226): > 100 µM (inactive)
- GI50 (NCI-H522): > 100 µM (inactive)
- GI50 (COLO 205): > 100 µM (inactive)
- GI50 (OVCAR-4): > 100 µM (inactive)
- GI50 (SK-OV-3): > 100 µM (inactive)
- GI50 (NCI-H226): > 100 µM (inactive)
- GI50 (UO-31): > 100 µM (inactive)
- GI50 (OVCAR-5): > 100 µM (inactive)
- GI50 (OVCAR-3): > 100 µM (inactive)
- GI50 (HCC 2998): > 100 µM (inactive)
- GI50 (SK-MEL-28): > 100 µM (inactive)
- GI50 (NCI-H23): > 100 µM (inactive)
- GI50 (DU-145): > 100 µM (inactive)
- GI50 (U-251): > 100 µM (inactive)
- GI50 (PC-3): > 100 µM (inactive)
- GI50 (CAKI-1): > 100 µM (inactive)
- GI50 (ACHN): > 100 µM (inactive)
- GI50 (MOLT-4): > 100 µM (inactive)
- GI50 (SNB-75): > 100 µM (inactive)
- GI50 (MCF7): > 100 µM (inactive)
- GI50 (HT-29): > 100 µM (inactive)
- GI50 (RXF 393): > 100 µM (inactive)
- GI50 (SF-539): > 100 µM (inactive)
- GI50 (MDA-MB-435): > 100 µM (inactive)
- GI50 (TK-10): > 100 µM (inactive)
- GI50 (HOP-62): > 100 µM (inactive)
- GI50 (SR): > 100 µM (inactive)
- GI50 (786-0): > 100 µM (inactive)
- GI50 (SW-620): > 100 µM (inactive)
- GI50 (HL-60): > 100 µM (inactive)
- GI50 (M14): > 100 µM (inactive)
- GI50 (LOX IMVI): > 100 µM (inactive)
- GI50 (HOP-92): > 100 µM (inactive)
- GI50 (SF-268): > 100 µM (inactive)
- GI50 (A549): > 100 µM (inactive)
- GI50 (CCRF-CEM): > 100 µM (inactive)
- GI50 (Malme-3M): > 100 µM (inactive)
- GI50 (EKVX): > 100 µM (inactive)
- GI50 (SNB-19): > 100 µM (inactive)
- GI50 (KM12): > 100 µM (inactive)
- GI50 (BT-549): > 100 µM (inactive)
- GI50 (SN12C): > 100 µM (inactive)
- GI50 (SF-295): > 100 µM (inactive)
- GI50 (T47D): > 100 µM (inactive)
- GI50 (MDA-N): > 100 µM (inactive)
- GI50 (MDA-MB-231): > 100 µM (inactive)
- GI50 (K562): > 100 µM (inactive)
- GI50 (HCT-116): > 100 µM (inactive)
- GI50 (Hs-578T): > 100 µM (inactive)
- GI50 (SK-MEL-2): > 100 µM (inactive)
- GI50 (UACC-62): > 100 µM (inactive)
